Converted amounts (≈) assume the structure as drawn. “Also recorded” adds a separate entry of the source.
How the values were obtained:
Assay type in all cases: cell-based
[1] = test system: P. aeruginosa (ATCC 27853); assay: MIC, P. aeruginosa; conditions: growth inhibition greater than 90%
Protocol: Minimal inhibitory concentrations (MIC) were measured according to the published method (Greenberg, W. A., Priestley, E. S., Sears, P. S., Alper, P. B., Rosenbohm, C., Hendrix, M., Hung, S.-C., & Wong, C.-H. (1999) J. Am. Chem. Soc. 121, 6527-6541). E. coli (ATCC 25922) (both wild type and pMM-transformed) and P. aeruginosa (ATCC 27853) were grown in medium 2 to an optical density OD 600 of 0.6-0.8. The inoculi were diluted to OD 600 ˜0.1 in medium 2 and 1 mL of the culture was placed in 13 mL test tubes. The desired concentrations of antibiotic were added from stock solutions. […] The absorbance at 600 nm of each sample was read and MIC was taken as the lowest antibiotic concentration inhibiting bacterial growth by greater than 90%.

E. coli (ATCC 25922) = assay: Bactericidal activity (bactericide index); conditions: 3 h incubation, FIG. 8
Protocol: The bactericidal activity of each antibiotic was investigated at concentrations of 0.5-4×MIC in medium E. coli (ATCC 25922) inoculum was added to 0.5 mL medium 2 to OD 600 ˜0.1 together with different antibiotic concentrations. The samples were incubated at 37° C. for 3 hrs, and the bacteria were collected by centrifugation. The bacterial pellets were washed with 0.5 mL of medium 2 and were plated on 1.5% medium 2 agar in 100 mm Petri dishes. The plates were incubated for 1-2 days at 37° C. and mean log 10 change in viable count was calculated and plotted vs drug concentration.

[2] = test system: E. coli (ATCC 25922) transformed with the plasmid pMM, bearing the APH(3')IIa gene; assay: Antibiotic activity disk assay, kanamycin/neomycin resistant E. coli; conditions: FIG. 7B
Protocol: E. coli (ATCC 25922) and P. aeruginosa (ATCC 27853) (BD Bioscience) were inoculated in 3 mL of the medium 2 (U.S. Pharmacopia), containing 6 g peptone, 3 g yeast extract and 1.5 g beef extract per 1 L, pH 6.6, and were grown in a shaker for 6 h at 37° C. until an OD 560=0.6-0.8 was reached.
For the antibiotic disk assay, […] of each bacterial inoculum was mixed with 10 mL of melted agar (1.5% medium 2 agar, BD Bioscience) at 50-55° C. and poured onto 100 mm Petri dishes. Sterile Whatmann 3 MM 5 mm paper disks were soaked with antibiotic solutions and allowed to dry. The disks were positioned evenly on the surface of bacterial-inoculated solid agar and the plates were incubated at 37° C. for 1-2 days. MIC and bactericide index measurements.

S. aureus = assay: Antibacterial activity against S. aureus
E. faecalis = assay: Antibacterial activity against E. faecalis

NCC1OC(OC2C(N)CC(N)C(O)C2O)C(N)C(O)C1O [L-Neamine]
Minimal inhibitory concentration (MIC), P. aeruginosa [1]: 1600 µM (≈ 516 µg/mL)
Concentration at which bactericidal effect begins (E. coli (ATCC 25922)): 600 µM
Antibiotic activity in disk assay, kanamycin/neomycin resistant E. coli [2]: maintained antibiotic activity; also recorded: maintaines substantially the same level of activity
Antibacterial activity against S. aureus (S. aureus): little to no antibacterial activity
Antibacterial activity against E. faecalis (E. faecalis): little to no antibacterial activity

Reference: patent US7244712B2, “Aminoglycoside antibiotics and methods of using same” (priority 2004, dated 2007)
